Test system: panel of Gram-positive organisms (Staphylococcus aureus, Streptococcus pneumoniae, Streptococcus pyogenes, Enterococcus faecalis, Enterococcus faecium) and …
Type: cell-based, Gram-positive and Gram-negative bacteria
Conditions: against all of the strains representing the organisms listed; serial two-fold dilutions 0.016 to 16 mcg/mL

COc1cnc2ccc(=O)n3c2c1[C@](O)(CN1CCC(NCc2cc4c(nn2)OCCO4)CC1)C3 [Example 66]
MIC values: > 16 µg/mL
